These results are taken from ChEMBL document CHEMBL4411281, “Unravel a neuroactive sHA sulfation pattern with neurogenesis activity by a library of defined oligosaccharides” (Eur J Med Chem, 2019).

One test has as its target T1, Midkine (Homo sapiens, UniProt P21741).
T1 sequence (P21741 whole entry): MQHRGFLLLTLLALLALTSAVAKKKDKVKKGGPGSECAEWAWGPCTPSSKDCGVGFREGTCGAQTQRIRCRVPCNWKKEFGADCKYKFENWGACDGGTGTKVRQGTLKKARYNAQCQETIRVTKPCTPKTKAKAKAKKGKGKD
As to the kind of experiment: Binding affinity to MDK (unknown origin) by SPR assay. In general terms: Surface plasmon resonance follows binding to a sensor surface in real time, without labels.

Test [1] has as its system Hippocampal neurone. As to the kind of experiment: Induction of neurite outgrowth in Sprague-Dawley E18 rat hippocampal neurons assessed as neurite length after 24 hrs in presence of anti-BDNF antibody by DAPI staining-based assay relative to control. It counts as functional, cell-based.
The target in test [2] is T2, Neurotrophic factor BDNF precursor form (Homo sapiens, UniProt P23560).
T2 sequence (P23560 whole entry): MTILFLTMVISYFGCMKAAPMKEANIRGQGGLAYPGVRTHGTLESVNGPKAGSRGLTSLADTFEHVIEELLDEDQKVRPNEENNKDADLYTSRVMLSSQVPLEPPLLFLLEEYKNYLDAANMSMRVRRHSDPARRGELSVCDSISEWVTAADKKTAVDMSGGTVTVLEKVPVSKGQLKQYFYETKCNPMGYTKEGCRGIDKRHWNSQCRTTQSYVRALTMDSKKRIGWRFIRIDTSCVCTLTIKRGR
As to the kind of experiment: Binding affinity to BDNF (unknown origin) by SPR assay.

The subject of test [3] is Hippocampal neurone. As to the kind of experiment: Induction of neurite outgrowth in Sprague-Dawley E18 rat hippocampal neurons assessed as neurite length at 250 ug/ml solubilized in culture media after 24 hrs by DAPI staining-based assay relative to control. The format is functional, cell-based.
The next test addresses T3, Pleiotrophin (Homo sapiens, UniProt P21246).
T3 sequence (P21246 whole entry): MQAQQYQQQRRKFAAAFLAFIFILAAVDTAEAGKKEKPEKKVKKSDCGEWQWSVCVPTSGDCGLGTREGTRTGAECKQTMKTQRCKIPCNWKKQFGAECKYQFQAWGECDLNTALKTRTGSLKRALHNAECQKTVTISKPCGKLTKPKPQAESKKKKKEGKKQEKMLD
As to the kind of experiment: Binding affinity to PTN (unknown origin) by SPR assay.

The nature of test [4]: Induction of neurite outgrowth in Sprague-Dawley E18 rat hippocampal neurons assessed as neurite length after 24 hrs by DAPI staining-based assay relative to control. The format is functional, Hippocampal neurone.
Test [5] has as its target Fibroblast growth factor 1 (Homo sapiens) (UniProt P05230). As to the kind of experiment: Binding affinity to FGF-1 (unknown origin) at 800 nM by SPR assay.
For test [6], the system named is Hippocampal neurone. Description: Induction of neurite outgrowth in Sprague-Dawley E18 rat hippocampal neurons assessed as neurite length after 24 hrs in presence of anti-MDK antibody by DAPI staining-based assay relative to control. The format is functional, cell-based.
The target in the next test is T4, Midkine (Homo sapiens) (UniProt P21741).
T4 sequence (whole entry): T1 sequence (P21741 whole entry)
Description: Binding affinity to MDK (unknown origin) at 800 nM by SPR assay.

For test [7], the target named is T5, Pleiotrophin (Homo sapiens) (UniProt P21246).
T5 sequence (whole entry): T3 sequence (P21246 whole entry)
As to the kind of experiment: Binding affinity to PTN (unknown origin) at 800 nM by SPR assay.

The target in test [8] is T6, Neurotrophic factor BDNF precursor form (Homo sapiens) (UniProt P23560).
T6 sequence (whole entry): T2 sequence (P23560 whole entry)
As to the kind of experiment: Binding affinity to BDNF (unknown origin) at 800 nM by SPR assay.

The test system of test [9] is Hippocampal neurone. Description: Induction of neurite outgrowth in Sprague-Dawley E18 rat hippocampal neurons assessed as neurite length at 50 ug/ml in presence of Proteus vulgaris Chondroitinase ABC after 12 hrs by DAPI staining-based assay relative to control. It counts as functional, cell-based.

Each structure is given as a SMILES string. Activity calls are given as the source filed them. No cut-off for these calls is given here.

Chain of Fibroblast growth factor 1 (Homo sapiens) (P05230 whole entry): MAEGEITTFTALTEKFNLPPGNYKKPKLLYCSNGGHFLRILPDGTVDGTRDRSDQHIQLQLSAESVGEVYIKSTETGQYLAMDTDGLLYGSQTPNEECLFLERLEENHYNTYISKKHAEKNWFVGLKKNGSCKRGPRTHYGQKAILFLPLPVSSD

As to `CC(=O)N[C@H]1[C@H](O[C@H]2[C@H](O)[C@@H](O)[C@H](O[C@H]3[C@H](O)[C@@H](COS(=O)(=O)O)O[C@@H](OCCCCCCN=[N+]=[N-])[C@@H]3NC(C)=O)O[C@@H]2C(=O)O)O[C@H](COS(=O)(=O)O)[C@@H](O)[C@@H]1O[C@@H]1O[C@H](C(=O)O)[C@@H](O)[C@H](O)[C@H]1O`, the Kd on Midkine is 52.3 nM; in test [2] it was 490 nM; at Pleiotrophin, 77.8 nM. The outcome (with Hippocampal neurone [1]; in the test on Hippocampal neurone [3]; in test [5]; in the test on Hippocampal neurone [6]) was inactive. In test [4], the Activity was determined as 27.3%.
`CC(=O)N[C@H]1[C@H](O[C@H]2[C@H](O)[C@@H](O)[C@H](O[C@H]3[C@H](O)[C@@H](CO)O[C@@H](OCCCCCCN=[N+]=[N-])[C@@H]3NC(C)=O)O[C@@H]2C(=O)O)O[C@H](CO)[C@@H](O)[C@@H]1O[C@@H]1O[C@H](C(=O)O)[C@@H](O)[C@H](O)[C@H]1O`: the outcome (at Midkine (Homo sapiens); in [7]; in test [8]; in test [5]) was inactive.
In the case of `CC(=O)N[C@H]1[C@H](O[C@H]2[C@H](O)[C@@H](O)[C@H](O[C@@H]3[C@@H](NC(C)=O)[C@H](OCCCCCCN=[N+]=[N-])O[C@H](CO)[C@H]3OS(=O)(=O)O)O[C@@H]2C(=O)O)O[C@H](CO)[C@@H](OS(=O)(=O)O)[C@@H]1O[C@@H]1O[C@H](C(=O)O)[C@@H](O)[C@H](O)[C@H]1O`, the outcome (at Midkine (Homo sapiens); in test [7]; in [8]; in [5]) was inactive.
For the molecule `CC(=O)N[C@H]1[C@H](O[C@H]2[C@H](O)[C@@H](O)[C@H](O[C@@H]3[C@@H](NC(C)=O)[C@H](OCCCCCCN=[N+]=[N-])O[C@H](COS(=O)(=O)O)[C@@H]3OS(=O)(=O)O)O[C@@H]2C(=O)O)O[C@H](COS(=O)(=O)O)[C@H](OS(=O)(=O)O)[C@@H]1O[C@@H]1O[C@H](C(=O)O)[C@@H](O)[C@H](O)[C@H]1O`, the outcome (with Hippocampal neurone [9]; with Hippocampal neurone [3]; in test [5]) was inactive. Further, the Kd at Midkine worked out at 96.3 nM; in test [2], 155 nM; on Pleiotrophin, 365 nM. Further, the Activity in test [4] was found to be 29.6%.
On to `CC(=O)N[C@H]1[C@H](O[C@H]2[C@H](O)[C@@H](O)[C@H](O[C@@H]3[C@@H](NC(C)=O)[C@H](OCCCCCCN=[N+]=[N-])O[C@H](COS(=O)(=O)O)[C@H]3OS(=O)(=O)O)O[C@@H]2C(=O)O)O[C@H](COS(=O)(=O)O)[C@@H](OS(=O)(=O)O)[C@@H]1O[C@@H]1O[C@H](C(=O)O)[C@@H](O)[C@H](O)[C@H]1O`, for which the result (on Midkine (Homo sapiens); in test [7]; in test [5]) was inactive. Moreover, the Kd in test [2] came to 659 nM. In addition, the Activity in test [4] worked out at 6.7%.
In the case of `CC(=O)N[C@H]1[C@H](O[C@H]2[C@H](O)[C@@H](O)[C@H](O[C@H]3[C@@H](O)[C@@H](COS(=O)(=O)O)O[C@@H](OCCCCCCN=[N+]=[N-])[C@@H]3NC(C)=O)O[C@@H]2C(=O)O)O[C@H](COS(=O)(=O)O)[C@H](O)[C@@H]1O[C@@H]1O[C@H](C(=O)O)[C@@H](O)[C@H](O)[C@H]1O`, the outcome (at Midkine (Homo sapiens); in test [7]; in test [8]; in [5]) was inactive. Besides, the Activity in test [4] was found to be 1%.

Usually Kd stands for the free concentration of one partner at which half of the binding sites on the other are occupied at equilibrium, for simple one-to-one binding.
